# Source: ChEMBL document CHEMBL5506020 (J Med Chem, 2024)
# Activity calls are given as the source filed them. The rule behind the calls is not given here.
# Tested on: MV4-11
# Test: Antiproliferative activity against human MV4-11 cells incubated for 120 hrs by Cell-Titer Glo assay
# Conditions: MV4-11, 120 h
row,IC50 [µM],SMILES
1,0.132,Cc1noc(C)c1-c1ccc2c(c1)nc([C@@H]1CCCC(=O)N1c1ccc(F)c(F)c1)n2C1CCN(CC(=O)Nc2ccc(CCNc3cccc4c3C(=O)N(C3CCC(=O)NC3=O)C4=O)cc2)CC1 (stereo not given in full)
2,1.76,Cc1noc(C)c1-c1ccc2c(c1)nc([C@@H]1CCCC(=O)N1c1ccc(F)c(F)c1)n2C1CCN(CC(=O)N2CCC(Nc3cccc4c3C(=O)N(C3C(=O)CCNC3=O)C4=O)CC2)CC1 (stereo not given in full)
3,1.8,Cc1noc(C)c1-c1ccc2c(c1)nc([C@@H]1CCCC(=O)N1c1ccc(F)c(F)c1)n2C1CCN(CC(=O)NCCNc2ccc3c(c2)C(=O)N(C2CCC(=O)NC2=O)C3=O)CC1 (stereo not given in full)
4,1.7,Cc1noc(C)c1-c1ccc2c(c1)nc([C@@H]1CCCC(=O)N1c1ccc(F)c(F)c1)n2C1CCN(CC(=O)N2CCN(c3cccc4c3C(=O)N(C3CCC(=O)NC3=O)C4=O)CC2)CC1 (stereo not given in full)
5,1.68,Cc1noc(C)c1-c1ccc2c(c1)nc([C@@H]1CCCC(=O)N1c1ccc(F)c(F)c1)n2C1CCN(CC(=O)NCCOCCOCCNc2cccc3c2C(=O)N(C2CCC(=O)NC2=O)C3=O)CC1 (stereo not given in full)
6,1.17,Cc1noc(C)c1-c1ccc2c(c1)nc([C@@H]1CCCC(=O)N1c1ccc(F)c(F)c1)n2C1CCN(CC(=O)NCCC2CCN(c3cccc4c3C(=O)N(C3CCC(=O)NC3=O)C4=O)CC2)CC1 (stereo not given in full)
7,1.02,Cc1noc(C)c1-c1ccc2c(c1)nc([C@@H]1CCCC(=O)N1c1ccc(F)c(F)c1)n2C1CCN(CC(=O)NCCCCCCNc2ccc3c(c2)C(=O)N(C2CCC(=O)NC2=O)C3=O)CC1 (stereo not given in full)
8,1.8,Cc1noc(C)c1-c1ccc2c(c1)nc([C@@H]1CCCC(=O)N1c1ccc(F)c(F)c1)n2C1CCN(CC(=O)NCCC#Cc2cccc3c2C(=O)N(C2CCC(=O)NC2=O)C3=O)CC1 (stereo not given in full)
9,1.72,Cc1noc(C)c1-c1ccc2c(c1)nc([C@@H]1CCCC(=O)N1c1ccc(F)c(F)c1)n2C1CCN(CC(=O)NCCCC#Cc2cccc3c2C(=O)N(C2CCC(=O)NC2=O)C3=O)CC1 (stereo not given in full)
10,2.21,Cc1noc(C)c1-c1ccc2c(c1)nc([C@@H]1CCCC(=O)N1c1ccc(F)c(F)c1)n2C1CCN(CC(=O)NCCCCNc2ccc3c(c2)C(=O)N(C2CCC(=O)NC2=O)C3=O)CC1 (stereo not given in full)
11,0.218,Cc1noc(C)c1-c1ccc2c(c1)nc([C@@H]1CCCC(=O)N1c1ccc(F)c(F)c1)n2C1CCN(CC(=O)NCCCCCCCCNc2cccc3c2C(=O)N(C2CCC(=O)NC2=O)C3=O)CC1 (stereo not given in full)
12,0.464,Cc1noc(C)c1-c1ccc2c(c1)nc([C@@H]1CCCC(=O)N1c1ccc(F)c(F)c1)n2C1CCN(CC(=O)NCCCCCNc2cccc3c2C(=O)N(C2CCC(=O)NC2=O)C3=O)CC1 (stereo not given in full)
13,0.525,Cc1noc(C)c1-c1ccc2c(c1)nc([C@@H]1CCCC(=O)N1c1ccc(F)c(F)c1)n2C1CCN(CC(=O)NCCCCCCCNc2cccc3c2C(=O)N(C2CCC(=O)NC2=O)C3=O)CC1 (stereo not given in full)
14,1.7,Cc1noc(C)c1-c1ccc2c(c1)nc([C@@H]1CCCC(=O)N1c1ccc(F)c(F)c1)n2C1CCN(CC(=O)NCCOCCNc2ccc3c(c2)C(=O)N(C2CCC(=O)NC2=O)C3=O)CC1 (stereo not given in full)
15,1.01,Cc1noc(C)c1-c1ccc2c(c1)nc([C@@H]1CCCC(=O)N1c1ccc(F)c(F)c1)n2C1CCN(CC(=O)NCCCCCNc2ccc3c(c2)C(=O)N(C2CCC(=O)NC2=O)C3=O)CC1 (stereo not given in full)
16,0.266,Cc1noc(C)c1-c1ccc2c(c1)nc([C@@H]1CCCC(=O)N1c1ccc(F)c(F)c1)n2C1CCN(CC(=O)N2CCC(CN3CCN(c4cccc5c4C(=O)N(C4CCC(=O)NC4=O)C5=O)CC3)CC2)CC1 (stereo not given in full)
17,1.15,Cc1noc(C)c1-c1ccc2c(c1)nc([C@@H]1CCCC(=O)N1c1ccc(F)c(F)c1)n2C1CCN(CC(=O)NCC#Cc2cccc3c2C(=O)N(C2CCC(=O)NC2=O)C3=O)CC1 (stereo not given in full)
18,6.07,Cc1noc(C)c1-c1ccc2c(c1)nc([C@@H]1CCCC(=O)N1c1ccc(F)c(F)c1)n2C1CCN(CC(=O)NCCOCCOCCNc2ccc3c(c2)C(=O)N(C2CCC(=O)NC2=O)C3=O)CC1 (stereo not given in full)
19,0.165,Cc1noc(C)c1-c1ccc2c(c1)nc([C@@H]1CCCC(=O)N1c1ccc(F)c(F)c1)n2C1CCN(C)CC1

# Molecular target: Protein cereblon/Histone acetyltransferase p300 (Homo sapiens) (UniProt Q09472+Q96SW2)
# Test: PROTAC activity at CRBN/p300 in human MV4-11 cells assessed as p300 degradation at 10 to 50 nM incubated for 24 hrs by Western blotting analysis
# Type: cell-based
# Conditions: dose 10-50 nM
# Sequence of Protein cereblon/Histone acetyltransferase p300 (Homo sapiens) (Q09472 2-2414 limits assumed): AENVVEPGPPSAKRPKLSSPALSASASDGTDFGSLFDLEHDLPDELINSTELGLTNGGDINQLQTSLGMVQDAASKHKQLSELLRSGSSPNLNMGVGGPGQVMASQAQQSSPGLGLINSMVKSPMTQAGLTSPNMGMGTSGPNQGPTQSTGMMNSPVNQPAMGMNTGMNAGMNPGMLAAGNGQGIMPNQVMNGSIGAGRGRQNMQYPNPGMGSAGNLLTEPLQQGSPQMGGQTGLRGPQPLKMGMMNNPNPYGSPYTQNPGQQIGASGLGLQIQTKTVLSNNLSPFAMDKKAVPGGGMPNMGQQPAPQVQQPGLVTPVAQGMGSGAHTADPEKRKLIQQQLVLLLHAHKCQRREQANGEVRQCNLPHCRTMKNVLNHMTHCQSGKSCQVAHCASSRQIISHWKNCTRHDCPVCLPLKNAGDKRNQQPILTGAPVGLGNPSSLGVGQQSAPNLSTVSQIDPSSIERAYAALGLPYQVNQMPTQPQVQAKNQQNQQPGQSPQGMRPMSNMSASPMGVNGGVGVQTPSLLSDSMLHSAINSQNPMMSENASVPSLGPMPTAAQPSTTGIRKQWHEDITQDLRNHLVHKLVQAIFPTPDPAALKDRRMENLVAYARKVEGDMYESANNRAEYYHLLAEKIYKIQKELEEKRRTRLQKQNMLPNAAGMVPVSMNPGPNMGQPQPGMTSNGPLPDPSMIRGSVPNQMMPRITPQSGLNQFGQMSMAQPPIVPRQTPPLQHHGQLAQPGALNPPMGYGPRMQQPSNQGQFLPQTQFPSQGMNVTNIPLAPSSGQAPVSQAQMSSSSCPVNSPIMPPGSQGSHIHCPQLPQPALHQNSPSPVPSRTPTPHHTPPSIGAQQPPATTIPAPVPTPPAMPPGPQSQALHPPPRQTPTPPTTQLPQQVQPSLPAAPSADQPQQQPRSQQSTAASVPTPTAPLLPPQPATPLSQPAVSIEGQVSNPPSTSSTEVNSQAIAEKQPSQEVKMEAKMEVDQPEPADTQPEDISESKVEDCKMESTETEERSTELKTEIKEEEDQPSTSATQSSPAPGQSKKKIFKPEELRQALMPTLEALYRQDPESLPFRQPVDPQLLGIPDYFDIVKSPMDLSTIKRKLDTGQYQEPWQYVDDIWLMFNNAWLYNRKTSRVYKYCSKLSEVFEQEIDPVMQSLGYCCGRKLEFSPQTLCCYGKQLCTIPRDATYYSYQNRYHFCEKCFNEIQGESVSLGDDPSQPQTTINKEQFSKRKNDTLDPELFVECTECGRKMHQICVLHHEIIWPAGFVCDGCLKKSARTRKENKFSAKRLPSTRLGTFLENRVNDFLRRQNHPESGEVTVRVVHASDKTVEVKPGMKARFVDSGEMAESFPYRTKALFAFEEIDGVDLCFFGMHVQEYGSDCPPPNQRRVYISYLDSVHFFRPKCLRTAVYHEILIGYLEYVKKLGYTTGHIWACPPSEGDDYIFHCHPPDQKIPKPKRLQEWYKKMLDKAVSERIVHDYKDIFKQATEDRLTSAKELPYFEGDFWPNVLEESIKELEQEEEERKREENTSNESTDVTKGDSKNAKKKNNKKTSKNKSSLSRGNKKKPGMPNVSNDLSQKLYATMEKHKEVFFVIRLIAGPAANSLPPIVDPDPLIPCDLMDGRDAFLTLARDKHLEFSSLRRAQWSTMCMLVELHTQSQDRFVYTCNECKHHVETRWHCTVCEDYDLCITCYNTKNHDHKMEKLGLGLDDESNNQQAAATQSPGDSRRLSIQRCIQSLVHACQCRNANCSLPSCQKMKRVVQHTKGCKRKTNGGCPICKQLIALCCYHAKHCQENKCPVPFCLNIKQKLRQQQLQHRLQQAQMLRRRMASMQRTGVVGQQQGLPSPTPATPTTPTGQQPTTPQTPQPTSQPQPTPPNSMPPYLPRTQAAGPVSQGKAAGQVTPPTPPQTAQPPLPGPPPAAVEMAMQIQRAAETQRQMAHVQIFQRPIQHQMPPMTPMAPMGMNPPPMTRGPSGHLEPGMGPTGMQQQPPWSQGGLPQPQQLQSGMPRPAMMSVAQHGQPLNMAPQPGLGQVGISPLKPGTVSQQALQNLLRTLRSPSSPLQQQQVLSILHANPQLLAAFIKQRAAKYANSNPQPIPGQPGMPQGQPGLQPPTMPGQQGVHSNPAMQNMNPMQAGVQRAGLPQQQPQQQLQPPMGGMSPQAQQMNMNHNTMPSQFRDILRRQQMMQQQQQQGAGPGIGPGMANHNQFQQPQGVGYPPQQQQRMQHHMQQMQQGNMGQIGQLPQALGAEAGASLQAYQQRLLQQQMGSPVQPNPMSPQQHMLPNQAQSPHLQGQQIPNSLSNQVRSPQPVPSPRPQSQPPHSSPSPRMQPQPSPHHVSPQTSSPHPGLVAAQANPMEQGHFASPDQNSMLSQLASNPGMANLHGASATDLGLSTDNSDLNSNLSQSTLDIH
# Sequence of Protein cereblon/Histone acetyltransferase p300 (Homo sapiens) (Q96SW2 whole entry partner): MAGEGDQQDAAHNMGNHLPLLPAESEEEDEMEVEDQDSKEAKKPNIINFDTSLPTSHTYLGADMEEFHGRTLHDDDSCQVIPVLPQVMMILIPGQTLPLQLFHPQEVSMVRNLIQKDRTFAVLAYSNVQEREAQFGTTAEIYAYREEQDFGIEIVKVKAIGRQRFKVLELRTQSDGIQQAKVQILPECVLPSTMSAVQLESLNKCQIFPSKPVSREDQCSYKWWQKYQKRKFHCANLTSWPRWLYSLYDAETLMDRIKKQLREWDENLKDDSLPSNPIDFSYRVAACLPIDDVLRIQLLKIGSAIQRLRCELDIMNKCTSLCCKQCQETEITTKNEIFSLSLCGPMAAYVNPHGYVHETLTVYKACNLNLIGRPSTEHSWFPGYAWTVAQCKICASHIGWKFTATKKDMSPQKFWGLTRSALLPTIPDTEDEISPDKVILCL
row,Activity,SMILES
1,Active,Cc1noc(C)c1-c1ccc2c(c1)nc([C@@H]1CCCC(=O)N1c1ccc(F)c(F)c1)n2C1CCN(CC(=O)Nc2ccc(CCNc3cccc4c3C(=O)N(C3CCC(=O)NC3=O)C4=O)cc2)CC1 (stereo not given in full)
2,inactive,Cc1noc(C)c1-c1ccc2c(c1)nc([C@@H]1CCCC(=O)N1c1ccc(F)c(F)c1)n2C1CCN(CC(=O)NCCNc2ccc3c(c2)C(=O)N(C2CCC(=O)NC2=O)C3=O)CC1 (stereo not given in full)
3,inactive,Cc1noc(C)c1-c1ccc2c(c1)nc([C@@H]1CCCC(=O)N1c1ccc(F)c(F)c1)n2C1CCN(CC(=O)NCCCCCCNc2ccc3c(c2)C(=O)N(C2CCC(=O)NC2=O)C3=O)CC1 (stereo not given in full)
4,inactive,Cc1noc(C)c1-c1ccc2c(c1)nc([C@@H]1CCCC(=O)N1c1ccc(F)c(F)c1)n2C1CCN(CC(=O)NCCCCNc2ccc3c(c2)C(=O)N(C2CCC(=O)NC2=O)C3=O)CC1 (stereo not given in full)
5,Active,Cc1noc(C)c1-c1ccc2c(c1)nc([C@@H]1CCCC(=O)N1c1ccc(F)c(F)c1)n2C1CCN(CC(=O)NCCCCCCCCNc2cccc3c2C(=O)N(C2CCC(=O)NC2=O)C3=O)CC1 (stereo not given in full)
6,Active,Cc1noc(C)c1-c1ccc2c(c1)nc([C@@H]1CCCC(=O)N1c1ccc(F)c(F)c1)n2C1CCN(CC(=O)NCCCCCNc2cccc3c2C(=O)N(C2CCC(=O)NC2=O)C3=O)CC1 (stereo not given in full)
7,Active,Cc1noc(C)c1-c1ccc2c(c1)nc([C@@H]1CCCC(=O)N1c1ccc(F)c(F)c1)n2C1CCN(CC(=O)NCCCCCCCNc2cccc3c2C(=O)N(C2CCC(=O)NC2=O)C3=O)CC1 (stereo not given in full)
8,inactive,Cc1noc(C)c1-c1ccc2c(c1)nc([C@@H]1CCCC(=O)N1c1ccc(F)c(F)c1)n2C1CCN(CC(=O)NCCOCCNc2ccc3c(c2)C(=O)N(C2CCC(=O)NC2=O)C3=O)CC1 (stereo not given in full)
9,inactive,Cc1noc(C)c1-c1ccc2c(c1)nc([C@@H]1CCCC(=O)N1c1ccc(F)c(F)c1)n2C1CCN(CC(=O)NCCCCCNc2ccc3c(c2)C(=O)N(C2CCC(=O)NC2=O)C3=O)CC1 (stereo not given in full)
10,inactive,Cc1noc(C)c1-c1ccc2c(c1)nc([C@@H]1CCCC(=O)N1c1ccc(F)c(F)c1)n2C1CCN(CC(=O)N2CCC(CN3CCN(c4cccc5c4C(=O)N(C4CCC(=O)NC4=O)C5=O)CC3)CC2)CC1 (stereo not given in full)
11,inactive,Cc1noc(C)c1-c1ccc2c(c1)nc([C@@H]1CCCC(=O)N1c1ccc(F)c(F)c1)n2C1CCN(CC(=O)NCCOCCOCCNc2ccc3c(c2)C(=O)N(C2CCC(=O)NC2=O)C3=O)CC1 (stereo not given in full)
